Laboratory results taken from patent US9765056B2, “Indole and pyrrole compounds, a process for their preparation and pharmaceutical compositions containing them” (LES LABORATOIRES SERVIER, priority 2013, dated 2017).
Structures can show the parent of a compound that is named as a salt.

Key:
Bcl-2 protein = Bcl-2 protein (histag-Bcl-2, UniProtKB P10415) (Homo sapiens (Human), UniProt P10415); assay: Inhibition of Bcl-2 by the fluorescence polarisation technique; format: binding; conditions: fluorescence polarisation test; method A, or method B where underlined (underlining not visible); read-out: IC50 (nM) Bcl-2 FP
Source text: Inhibition of Bcl-2 by the fluorescence polarisation technique

[1] = test system: cleaved form of caspase 3; assay: Quantification of the cleaved form of caspase 3 in vivo (MSD ELISA) in RS4;11 xenograft tumour lysates; design: species or system mice (SCID strain); conditions: oral route
Experimental: Quantification of the Cleaved Form of Caspase 3 In Vivo
The ability of the compounds of the invention to activate caspase 3 is evaluated in a xenograft model of RS4;11 leukaemia cells.
1×10^7 RS4;11 cells are grafted subcutaneously into immunosuppressed mice (SCID strain). 25 to 30 days after the graft, the animals are treated orally with the various compounds. After treatment, the tumour masses are recovered (after a time period T) and lysed, and the cleaved (activated) form of caspase 3 is quantified in the tumour lysates.
This quantification is carried out using the “Meso Scale Discovery (MSD) ELISA platform” test, which specifically assays the cleaved form of caspase 3. It is expressed in the form of an activation factor corresponding to the ratio between the quantity of cleaved caspase 3 in the treated mice divided by the quantity of cleaved caspase 3 in the control mice.

[2] = test system: RS4;11 leukaemia tumour line; assay: In vitro cytotoxicity, Microculture Tetrazolium Assay (MTT); format: cell-based; conditions: Homo sapiens; RS4;11 cells, 48 hours exposure
Experimental: The cytotoxicity studies were carried out on the RS4;11 leukaemia tumour line.
The cells are distributed onto microplates and exposed to the test compounds for 48 hours. The cell viability is then quantified by a colorimetric assay, the Microculture Tetrazolium Assay (Cancer Res., 1987, 47, 939-942).

[3] = 25 mg/kg, tumour removed after 2 h

Chain of Bcl-2 protein (P10415 whole entry): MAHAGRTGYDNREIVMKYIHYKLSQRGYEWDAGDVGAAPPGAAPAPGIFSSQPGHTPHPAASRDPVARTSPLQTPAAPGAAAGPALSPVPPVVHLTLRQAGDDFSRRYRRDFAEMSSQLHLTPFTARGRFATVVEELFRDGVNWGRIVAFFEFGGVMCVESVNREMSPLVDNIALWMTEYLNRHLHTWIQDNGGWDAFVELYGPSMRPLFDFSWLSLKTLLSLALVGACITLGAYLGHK

Compound | IC50 (Bcl-2 protein) [nM] | Activation factor ± SEM (versus control), cleaved caspase 3 MSD test [1, 3] | IC50 [2] [nM] | Activation factor ± SEM (versus control), cleaved caspase 3 MSD test ([1]; 125 mg/kg, tumour removed after 2 h) | Activation factor ± SEM (versus control), cleaved caspase 3 MSD test ([1]; 100 mg/kg, tumour removed after 16 h)
Cl.Cn1ccc2cc(N(C(=O)c3cn(-c4cc5c(cc4C(=O)N4Cc6ccccc6C[C@H]4CN4CCOCC4)OCO5)c4c3CCCC4)c3ccc(O)cc3)cnc21 [Example 207, N-(4-Hydroxyphenyl)-N-(1-methyl-1H-pyrrolo[2,3-b]pyridin-5-yl)-1-(6-{[(3S)-3-(morpholin-4-ylmethyl)-3,4-dihydroisoquinolin-2(1H)-yl]carbonyl}-1,3-benzodioxol-5-yl)-4,5,6,7-tetrahydro-1H-indole-3-carboxamide hydrochloride] | 20.3 | 14.6 ± 4.4 | 22.2 | – | –
Cc1c(C(=O)N(c2ccc(O)cc2)c2cnc3c(c2)CCN3C)cn(-c2cc(Cl)ccc2C(=O)N2Cc3ccccc3C[C@H]2CN2CCOCC2)c1C.Cl [Example 210, 1-(5-Chloro-2-{[(3S)-3-(morpholin-4-ylmethyl)-3,4-dihydroisoquinolin-2(1H)-yl]carbonyl}phenyl)-N-(4-hydroxyphenyl)-4,5-dimethyl-N-(1-methyl-2,3-dihydro-1H-pyrrolo[2,3-b]pyridin-5-yl)-1H-pyrrole-3-carboxamide hydrochloride] | 3.1 | – | 64.7 | 36.3 ± 13.3 | –
Cc1c(C(=O)N(c2ccc(O)cc2)c2cc(C#N)n(C)c2C)cn(-c2cc(Cl)ccc2C(=O)N2Cc3ccccc3C[C@H]2CN2CCOCC2)c1C.Cl [Example 211, 1-(5-Chloro-2-{[(3S)-3-(morpholin-4-ylmethyl)-3,4-dihydroisoquinolin-2(1H)-yl]carbonyl}phenyl)-N-(5-cyano-1,2-dimethyl-1H-pyrrol-3-yl)-N-(4-hydroxyphenyl)-4,5-dimethyl-1H-pyrrole-3-carboxamide hydrochloride] | 3.7 | 94.7 ± 9.8 | 46.9 | – | –
Cl.O=C(c1cn(-c2cc3c(cc2C(=O)N2Cc4ccccc4C[C@H]2CN2CCOCC2)OCO3)c2ccccc12)N(c1ccccc1)c1ccc(O)cc1 [Example 184, N-(4-Hydroxyphenyl)-1-{6-[(3S)-3-(morpholin-4-ylmethyl)-1,2,3,4-tetrahydroisoquinoline-2-carbonyl]-2H-1,3-benzodioxol-5-yl}-N-phenyl-1H-indole-3-carboxamide hydrochloride] | 14.1 | – | 154 | – | 15.1
Cc1cc(C(=O)N(c2ccc(O)cc2)c2ccc(F)cc2)cn1-c1cc2c(cc1C(=O)N1Cc3ccccc3C[C@H]1CN1CCN(C)CC1)OCO2 [Example 84, N-(4-Fluorophenyl)-N-(4-hydroxyphenyl)-5-methyl-1-(6-{[(3S)-3-[(4-methylpiperazin-1-yl)methyl]-3,4-dihydroisoquinolin-2(1H)-yl]carbonyl}-1,3-benzodioxol-5-yl)-1H-pyrrole-3-carboxamide] | 6.7 | – | 146 | – | –
Cc1ccc(N(C(=O)c2cn(-c3cc4c(cc3C(=O)N3Cc5ccccc5C[C@H]3CN3CCN(C)CC3)OCO4)c3ccccc23)c2ccc(O)c(Cl)c2)cc1 [Example 63, N-(3-Chloro-4-hydroxyphenyl)-N-(4-methylphenyl)-1-(6-{[(3S)-3-[(4-methylpiperazin-1-yl)methyl]-3,4-dihydroisoquinolin-2(1H)-yl]carbonyl}-1,3-benzodioxol-5-yl)-1H-indole-3-carboxamide hydrochloride] | 168 | – | 1510 | – | –
